Test results from ChEMBL document CHEMBL1125446 (J Med Chem, 1992).
One block for each compound: values may come before it. Positions of bridges follow the written chain, without caps; N, C: chain ends. Non-standard residues stand in square brackets, D forms with d. Residues, ends and D or L forms follow the SMILES beside them.

Experiments:
Rattus norvegicus = organism: Rattus norvegicus; assay: Compound was evaluated for the Inositol phosphate accumulation in rat skin fibroblasts.; type: functional
Endothelin-1 receptor [1] = target: T1, Endothelin-1 receptor (Sus scrofa, UniProt Q29010); assay: Compound was evaluated for the binding affinity towards Endothelin A receptor in porcine aortic membranes; type: cell membranes
T1 sequence (Q29010 whole entry): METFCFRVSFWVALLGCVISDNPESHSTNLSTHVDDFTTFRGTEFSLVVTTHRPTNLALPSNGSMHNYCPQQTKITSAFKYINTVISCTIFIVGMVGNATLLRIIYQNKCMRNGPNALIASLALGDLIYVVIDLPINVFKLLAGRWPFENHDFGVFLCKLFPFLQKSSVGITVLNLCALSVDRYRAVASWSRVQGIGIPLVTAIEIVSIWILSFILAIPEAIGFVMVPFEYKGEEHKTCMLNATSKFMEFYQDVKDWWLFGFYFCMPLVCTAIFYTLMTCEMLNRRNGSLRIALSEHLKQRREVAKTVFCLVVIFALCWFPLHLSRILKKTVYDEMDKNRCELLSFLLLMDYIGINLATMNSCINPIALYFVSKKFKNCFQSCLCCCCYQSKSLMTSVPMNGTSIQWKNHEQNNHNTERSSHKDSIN

Endothelin-1 receptor [2] = target: T2, Endothelin-1 receptor (Rattus norvegicus, UniProt P26684); assay: Compound was evaluated for the binding affinity to Endothelin A receptor in the rat atrium; type: tissue-based, Cardiac atrium
T2 sequence (P26684 whole entry): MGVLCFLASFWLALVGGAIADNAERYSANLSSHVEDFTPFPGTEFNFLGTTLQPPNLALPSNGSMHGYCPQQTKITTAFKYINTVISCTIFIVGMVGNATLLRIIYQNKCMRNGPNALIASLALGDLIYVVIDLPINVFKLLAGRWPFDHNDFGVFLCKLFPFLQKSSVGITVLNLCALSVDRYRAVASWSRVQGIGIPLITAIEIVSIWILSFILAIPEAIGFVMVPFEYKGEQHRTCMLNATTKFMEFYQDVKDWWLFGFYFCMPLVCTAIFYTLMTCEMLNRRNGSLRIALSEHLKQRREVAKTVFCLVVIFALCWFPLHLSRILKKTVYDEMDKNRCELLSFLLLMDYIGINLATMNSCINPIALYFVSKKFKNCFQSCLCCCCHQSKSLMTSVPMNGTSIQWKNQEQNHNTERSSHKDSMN

[3] = target: T3, Endothelin receptor type B (Rattus norvegicus, UniProt P21451); assay: Compound was evaluated for the binding affinity to Endothelin B receptor in the rat cerebellum; type: tissue-based
T3 sequence (P21451 whole entry): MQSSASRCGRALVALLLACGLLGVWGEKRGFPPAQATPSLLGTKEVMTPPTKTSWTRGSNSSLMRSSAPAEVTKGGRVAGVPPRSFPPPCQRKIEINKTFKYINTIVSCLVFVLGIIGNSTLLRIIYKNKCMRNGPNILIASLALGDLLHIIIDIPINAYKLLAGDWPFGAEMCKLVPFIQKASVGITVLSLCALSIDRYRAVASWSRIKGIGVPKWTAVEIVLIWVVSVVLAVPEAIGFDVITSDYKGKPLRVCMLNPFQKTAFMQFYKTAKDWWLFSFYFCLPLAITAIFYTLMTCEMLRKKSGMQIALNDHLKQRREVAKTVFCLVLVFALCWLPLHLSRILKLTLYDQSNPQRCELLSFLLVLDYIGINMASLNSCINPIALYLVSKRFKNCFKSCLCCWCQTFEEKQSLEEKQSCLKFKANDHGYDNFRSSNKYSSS

Endothelin-1 receptor [4] = target: T2, Endothelin-1 receptor; assay: Compound was evaluated for the binding affinity to Endothelin A receptor in the rat aorta; type: tissue-based
[5] = target: T3, Endothelin receptor type B; assay: Compound was evaluated for the binding affinity to Endothelin B receptor in the rat hippocampus; type: tissue-based
Endothelin-1 receptor [6] = target: T1, Endothelin-1 receptor; assay: Compound was evaluated for the binding affinity to Endothelin A receptor in the porcine aortic smooth muscle
[7] = target: T4, Endothelin receptor, ET-A/ET-B (Homo sapiens, UniProt P24530+P25101); assay: Compound was evaluated for the Inhibition of the contractile response of Endothelin A receptor in rabbit thoracic aorta; type: functional, tissue-based, Oryctolagus cuniculus; details: target entry is the homologue from another species
T4 sequence (P24530 whole entry): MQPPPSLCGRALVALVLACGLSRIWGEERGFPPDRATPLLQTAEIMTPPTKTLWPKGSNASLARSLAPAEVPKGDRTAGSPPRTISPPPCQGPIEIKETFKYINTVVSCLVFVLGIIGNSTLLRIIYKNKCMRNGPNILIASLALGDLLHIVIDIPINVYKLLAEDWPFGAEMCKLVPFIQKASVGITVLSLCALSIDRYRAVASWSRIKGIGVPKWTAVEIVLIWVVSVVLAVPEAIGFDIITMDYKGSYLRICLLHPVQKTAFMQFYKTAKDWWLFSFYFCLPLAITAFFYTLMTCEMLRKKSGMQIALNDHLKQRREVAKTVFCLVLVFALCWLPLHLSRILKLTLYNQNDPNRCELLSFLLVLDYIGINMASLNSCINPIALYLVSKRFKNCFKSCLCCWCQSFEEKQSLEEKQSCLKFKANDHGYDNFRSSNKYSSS
T4 sequence (P25101 whole entry): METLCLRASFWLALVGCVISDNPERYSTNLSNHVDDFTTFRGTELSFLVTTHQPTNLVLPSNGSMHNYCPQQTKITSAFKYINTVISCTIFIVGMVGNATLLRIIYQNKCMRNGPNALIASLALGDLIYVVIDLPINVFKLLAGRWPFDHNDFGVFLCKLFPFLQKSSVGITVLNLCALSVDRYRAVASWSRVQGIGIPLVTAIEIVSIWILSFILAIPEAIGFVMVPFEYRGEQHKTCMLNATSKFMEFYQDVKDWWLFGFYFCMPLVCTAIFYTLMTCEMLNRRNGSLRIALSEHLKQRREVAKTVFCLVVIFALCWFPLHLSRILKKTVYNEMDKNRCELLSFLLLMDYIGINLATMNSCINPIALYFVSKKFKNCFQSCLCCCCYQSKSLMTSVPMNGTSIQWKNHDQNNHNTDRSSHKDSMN

Compound: Ac-HLDIIW-OH
IC50 (Rattus norvegicus): < 50000 nM

IC50 (Endothelin-1 receptor [1]): 7600 nM
Compound: CNC(=O)[C@H](Cc1ccccn1)NC(=O)[C@@H](Cc1c[nH]c2ccccc12)N(C)C(=O)[C@@H](CC(=O)N1CCCCCC1)CC(C)C

Compound: CC(C)C[C@H](NC(=O)N1CCCCCC1)C(=O)N(C)[C@H](Cc1c[nH]c2ccccc12)C(=O)N[C@H](Cc1ccccn1)C(=O)O
IC50 (Endothelin-1 receptor [1]): 2500 nM

Compound: CC(C)C[C@H](NC(=O)N1CCCCCC1)C(=O)N(C)[C@H](Cc1c[nH]c2ccccc12)C(=O)N[C@H](Cc1ccccn1)C(=O)N[C@@H](Cc1ccccc1)C(=O)O
IC50 (Endothelin-1 receptor [1]): 21000 nM

Compound: CC[C@H](C)[C@H](NC(=O)[C@H](CC(=O)O)NC(=O)[C@H](CC(C)C)NC(=O)[C@@H](Cc1c[nH]cn1)NC(C)=O)C(=O)N[C@H](C(=O)N[C@@H](Cc1c[nH]c2ccccc12)C(=O)O)[C@@H](C)CC (Ac-[dH]LDIIW-OH)
IC50 (Rattus norvegicus): 1400 nM

Compound: CC(C)C[C@H](NC(=O)N1CCCCCC1)C(=O)N(C)[C@H](Cc1c[nH]c2ccccc12)C(=O)N[C@H](Cc1ccccn1)C(=O)N(C)CC(=O)O
IC50 (Endothelin-1 receptor [1]): 7600 nM

Compound: CC[C@H](C)[C@H](NC(=O)[C@@H](NC(=O)[C@H](CC(=O)O)NC(=O)[C@H](CCC(N)=O)NC(=O)[C@H](Cc1cnc[nH]1)NC(=O)[C@@H]1CSSC[C@H](N)C(=O)N[C@@H]([C@@H](C)O)C(=O)N[C@H]2CSSC[C@H](NC(=O)[C@H](CCC(=O)O)NC(=O)[C@H](CCC(=O)O)NC(=O)[C@H](CC(=O)O)NC(=O)[C@H]([C@@H](C)O)NC(=O)[C@H](CCSC)NC(=O)[C@H](CC(=O)O)NC(=O)[C@H](CC(N)=O)NC2=O)C(=O)N[C@@H](CC(C)C)C(=O)N[C@@H](CC(N)=O)C(=O)N[C@@H](Cc2ccccc2)C(=O)N1)C(C)C)C(=O)N[C@@H](Cc1c[nH]c2ccccc12)C(=O)O
Ki (Endothelin-1 receptor [2]): 4200 nM
Ki [3]: 0.016 nM
Ki (Endothelin-1 receptor [4]): > 5000 nM
Ki [5]: 0.023 nM

Compound: CC[C@@H](C)[C@@H](NC(=O)[C@@H](NC(=O)[C@H](CC(=O)O)NC(=O)[C@H](CC(C)C)NC(=O)[C@H](Cc1c[nH]cn1)NC(C)=O)[C@@H](C)CC)C(=O)N[C@@H](Cc1c[nH]c2ccccc12)C(=O)O (Ac-HLDI[dI]W-OH)
IC50 (Rattus norvegicus): < 50000 nM

Compound: CC[C@H](C)[C@H](NC(=O)[C@H](CC(=O)O)NC(=O)[C@H](CC(C)C)NC(=O)[C@H](Cc1c[nH]cn1)NC(=O)[C@@H]1CSSC[C@H](N)C(=O)N[C@@H]([C@@H](C)O)C(=O)N[C@H]2CSSC[C@H](NC(=O)[C@H](CCC(=O)O)NC(=O)[C@H](CCCCN)NC(=O)[C@H](CC(=O)O)NC(=O)[C@H](CCCCN)NC(=O)[C@H](Cc3ccc(O)cc3)NC(=O)[C@H]([C@@H](C)O)NC(=O)[C@H](Cc3ccccc3)NC2=O)C(=O)N[C@@H](C(C)C)C(=O)N[C@@H](Cc2ccc(O)cc2)C(=O)N[C@@H](Cc2ccc(O)cc2)C(=O)N1)C(=O)N[C@H](C(=O)N[C@@H](Cc1c[nH]c2ccccc12)C(=O)O)[C@@H](C)CC [ENDOTHELIN 3]
Ki (Endothelin-1 receptor [2]): 1.6 nM
Ki [3]: 0.021 nM
Ki (Endothelin-1 receptor [4]): 2.5 nM
Ki [5]: 0.036 nM

IC50 (Endothelin-1 receptor [6]): 22000 nM
Compound: CC(C)C[C@@H]1NC(=O)[C@@H](C(C)C)NC(=O)[C@@H]2CCCN2C(=O)[C@@H](CC(=O)O)NC(=O)[C@@H](Cc2c[nH]c3ccccc23)NC1=O [BQ-123] (cyclo(L[dW][dD]P[dV]))

Compound: CC(C)C[C@H](NC(=O)Cc1ccccc1Cl)C(=O)N(C)[C@H](Cc1c[nH]c2ccccc12)C(=O)N[C@H](CC(C)C)C(=O)O
IC50 (Endothelin-1 receptor [1]): 32000 nM

Compound: CC[C@H](C)[C@H](NC(=O)[C@@H](NC(=O)[C@H](CC(=O)O)NC(=O)[C@H](CCC(N)=O)NC(=O)[C@H](Cc1cnc[nH]1)NC(=O)[C@@H]1CSSC[C@H](N)C(=O)N[C@@H](CO)C(=O)N[C@H]2CSSC[C@H](NC(=O)[C@H](CCC(=O)O)NC(=O)[C@H](CCCCN)NC(=O)[C@H](CC(=O)O)NC(=O)[C@H]([C@@H](C)O)NC(=O)[C@H](CCSC)NC(=O)[C@H](CC(=O)O)NC(=O)[C@H](CCCCN)NC2=O)C(=O)N[C@@H](CC(C)C)C(=O)N[C@@H](Cc2ccc(O)cc2)C(=O)N[C@@H](Cc2ccccc2)C(=O)N1)C(C)C)C(=O)N[C@@H](Cc1c[nH]c2ccccc12)C(=O)O (H-CSCKDMTDKECLYFCHQDVIW-OH; disulfide 1-15, 3-11)
Ki (Endothelin-1 receptor [2]): 0.087 nM
Ki [3]: 0.013 nM
Ki (Endothelin-1 receptor [4]): 0.24 nM
Ki [5]: 0.012 nM

Compound: H-HLDIIW-OH
IC50 (Rattus norvegicus): < 50000 nM

IC50 (Endothelin-1 receptor [6]): 1400 nM
Compound: CC(C)C[C@@H]1NC(=O)[C@@H](C(C)C)NC(=O)[C@H](C)NC(=O)[C@@H](CCC(=O)O)NC(=O)[C@@H](Cc2c[nH]c3ccccc23)NC1=O (single isomer, unassigned)

Compound: CC(C)C[C@H](NC(=O)C1CCCCC1)C(=O)N(C)[C@H](Cc1c[nH]c2ccccc12)C(=O)N[C@H](Cc1ccccn1)C(=O)O.Cl
IC50 [7]: 230000 nM
IC50 (Endothelin-1 receptor [1]): 2300 nM
